Assay results as given in PMC6098951, “Design and synthesis of new esters of terpenoid alcohols as 15-lipoxygenase inhibitors” (Iranian Journal of Basic Medical Sciences, 2018).
Where two headings read alike, the source gives them in different places.

How the values were obtained:
[1] = biological target: T1, SLO (soybean 15-lipoxygenase: L1; EC 1,13,11,12) (Glycine max, UniProt P08170); assay: 15-lipoxygenase inhibitory assessment (peroxide formation method); format: biochemical; details: for IC50: SLO
T1 sequence (P08170 1-839): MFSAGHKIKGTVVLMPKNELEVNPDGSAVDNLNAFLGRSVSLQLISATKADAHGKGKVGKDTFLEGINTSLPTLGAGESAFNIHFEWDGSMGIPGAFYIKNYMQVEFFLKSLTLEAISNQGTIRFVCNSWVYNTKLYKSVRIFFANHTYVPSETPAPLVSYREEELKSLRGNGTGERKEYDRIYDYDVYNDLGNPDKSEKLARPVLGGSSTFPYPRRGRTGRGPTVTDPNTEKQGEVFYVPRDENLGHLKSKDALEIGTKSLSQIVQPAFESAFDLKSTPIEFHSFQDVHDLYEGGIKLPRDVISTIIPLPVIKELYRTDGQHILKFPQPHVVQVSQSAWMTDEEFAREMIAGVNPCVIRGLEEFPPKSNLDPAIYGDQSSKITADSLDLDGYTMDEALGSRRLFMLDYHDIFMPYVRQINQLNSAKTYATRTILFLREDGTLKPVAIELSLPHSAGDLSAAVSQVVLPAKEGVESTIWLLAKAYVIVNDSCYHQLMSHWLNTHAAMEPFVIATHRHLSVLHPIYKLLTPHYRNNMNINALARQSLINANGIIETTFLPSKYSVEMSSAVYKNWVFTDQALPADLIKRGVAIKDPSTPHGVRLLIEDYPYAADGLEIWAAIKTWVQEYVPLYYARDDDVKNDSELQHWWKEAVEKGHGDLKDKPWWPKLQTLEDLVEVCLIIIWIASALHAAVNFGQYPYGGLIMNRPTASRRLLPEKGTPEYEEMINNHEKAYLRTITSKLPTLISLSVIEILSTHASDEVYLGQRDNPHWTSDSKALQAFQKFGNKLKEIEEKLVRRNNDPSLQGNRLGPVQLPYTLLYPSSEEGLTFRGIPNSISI
Experimental: Linoleic acid and two assay solutions (A and B) were prepared in advance. Solution A was 50 mM (3-dimethylaminobenzoic acid) (DMAB) in l00 mM phosphate buffer (pH 7.0). Solution B was a mixture of l0 mM (3-methyl-2-benzothiazolonhydrazone) (MBTH) (3 ml), hemoglobin (5 mg/ml, 3 ml) in 50 mM phosphate buffer at pH 5.0 (25 ml). A linoleic acid solution was prepared by mixing 5 mg of linoleic acid with 0.5 ml ethanol and then diluting with KOH 100 mM to a final volume of 5 ml. In the standard assay, the sample in ethanol (25 µl), SLO (4,000 units/ml in 50 mM phosphate buffer pH 7.0; 25 µl), and phosphate buffer pH 7.0 (50 mM; 900 µl) were mixed in a test tube, and pre-incubation was carried out for 5 min at room temperature. A control test was performed with the same volume of ethanol. After pre-incubation, linoleic acid solution (50 µl) was added to start the peroxidation reaction, and, 7 min later, solution A (270 µl) and then solution B (130 µl) were added to start the color formation. Further, 5 min later, 200 µl of a 2 % sodium dodecyl sulfate (SDS) solution was added to terminate the reaction. The absorbance at 598 nm was compared to control test.
The inhibitory activity of all synthetic compounds against SLO (soybean 15-lipoxygenase: L1; EC 1,13,11,12) was determined using the peroxide formation method ([13], [14]). In this method, the basis of evaluation of lipoxygenase activity is measuring the concentration of fatty acid peroxide. All measurements were compared with 4-methyl-2-(4-methylpiperazinyl)pyrimido[4,5-b]benzothiazine (4-MMPB), one of the known lipoxygenase inhibitors (Table 1).

[2] = DPPH bleaching (radical scavenging); details: 25 μM DPPH in ethanol, 30 min at room temperature, absorbance 517 nm; ± SEM
Experimental: DPPH solution (25 μM) in absolute ethanol was prepared. […] Ethanol was used as control solution. After 30 min at room temperature, the absorbance was recorded at 517 nm.
The radical scavenging ability of all synthetic compounds using stable free radicals (DPPH: 2,2-diphenyl-
1-picrylhydrazyl) has been previously measured (Table 1) ([15]). In this assessment, the DPPH bleaching potency of the synthetic compounds has been reported as IC50 values.

[3] = linoleic acid substrate, pH 7.0, absorbance 598 nm, ± SEM, read-out: Lipoxygenase inhibition IC50
[4] = read-out: IC50 inhibitory activity against soybean 15-lipoxygenase (abstract)

| SMILES | IC50 [1, 3] | IC50 [2] | melting point | IC50 [1, 4] | fold less inhibitory potency versus 2b ([1]; lipoxygenase inhibition IC50 compared with 2b) |
| --- | --- | --- | --- | --- | --- |
| COc1cc(C(=O)O[C@H]2C3(C)CCC(C3)C2(C)C)ccc1O (stereo partly drawn) [2a, (2S)-1,3,3-trimethylbicyclo[2.2.1]heptan-2-yl 4-hydroxy-3-methoxybenzoate] | 40.1 ± 2.2 µM | > 500 µM | 120 to 122 °C | – | – |
| CC12CCC(C1)C(C)(C)[C@H]2OC(=O)c1ccc(O)c(O)c1 (stereo partly drawn) [2b, (2S)-1,3,3-trimethylbicyclo[2.2.1]heptan-2-yl 3,4-dihydroxybenzoate] | 1.68 ± 0.61 µM | 10 ± 1 µM | 58 to 61 °C | – | – |
| COc1cccc(C(=O)O[C@H]2C3(C)CCC(C3)C2(C)C)c1 (stereo partly drawn) [2c, (2S)-1,3,3-trimethylbicyclo[2.2.1]heptan-2-yl 3-methoxybenzoate] | > 500 µM | > 500 µM | – | – | – |
| COc1ccc(C(=O)O[C@H]2C3(C)CCC(C3)C2(C)C)cc1OC (stereo partly drawn) [2d, (2S)-1,3,3-trimethylbicyclo[2.2.1]heptan-2-yl 3,4-dimethoxybenzoate] | > 500 µM | > 500 µM | – | – | – |
| CC12CCC(C1)C(C)(C)[C@H]2OC(=O)c1cc(O)c(O)c(O)c1 (stereo partly drawn) [2e, (2S)-1,3,3-trimethylbicyclo[2.2.1]heptan-2-yl 3,4,5-trihydroxybenzoate] | 1.71 ± 0.41 µM | 3.46 ± 0.33 µM | 171 to 173 °C | – | – |
| COc1cc(/C=C/C(=O)O[C@H]2C3(C)CCC(C3)C2(C)C)ccc1O (stereo partly drawn) [2f, (2S)-1,3,3-trimethylbicyclo[2.2.1]heptan-2-yl(E)-3-(4-hydroxy-3-methoxyphenyl)acrylate] | 194 ± 11.3 µM | > 500 µM | – | – | – |
| CC12CCC(C1)C(C)(C)[C@H]2OC(=O)/C=C/c1ccc(O)c(O)c1 (stereo partly drawn) [2g, (2S)-1,3,3-trimethylbicyclo[2.2.1]heptan-2-yl (E)-3-(3,4-dihydroxyphenyl)acrylate] | 1.67 ± 0.22 µM | 10.9 ± 1.1 µM | – | – | – |
| CCOC(=O)c1ccc(O)c(O)c1 [2p, ethyl catechuate] | 6.5 ± 0.53 µM | 9.2 ± 0.45 µM | – | – | about 5 fold |

More lines, main results first:

| IC50 [1, 3] | IC50 [2] | melting point | IC50 [1, 4] | SMILES | fold less inhibitory potency versus 2b ([1]; lipoxygenase inhibition IC50 compared with 2b) |
| --- | --- | --- | --- | --- | --- |
| 273 ± 11.3 µM | > 500 µM | – | – | COc1cc(C(=O)O[C@@H]2CC3CCC2(C)C3(C)C)ccc1O (stereo partly drawn) [2h, (2R)-1,7,7-trimethylbicyclo[2.2.1]heptan-2-yl 4-hydroxy-3-methoxybenzoate] | – |
| 164 ± 13.2 µM | > 500 µM | 136 to 139 °C | – | COc1cc(C(=O)OC23CC4CC(CC(C4)C2)C3)ccc1O [2i, (3s,5s,7s)-adamantan-1-yl 4-hydroxy-3-methoxy benzoate] | – |
| – | 9.1 ± 0.79 µM | 170 to 173 °C | 0.95 µM | O=C(OC12CC3CC(CC(C3)C1)C2)c1ccc(O)c(O)c1 [2j, (3s,5s,7s)-adamantan-1-yl 3,4-dihydroxybenzoate] | – |
| 2.28 ± 0.1 µM | 4.5 ± 0.19 µM | 195 to 199 °C | – | O=C(OC12CC3CC(CC(C3)C1)C2)c1cc(O)c(O)c(O)c1 [2k, (3s,5s,7s)-adamantan-1-yl 3,4,5-trihydroxybenzoate] | – |
| 3.9 ± 0.61 µM | 18 ± 1.9 µM | 191 to 196 °C | – | O=C(/C=C/c1ccc(O)c(O)c1)OC12CC3CC(CC(C3)C1)C2 [2l, (3s,5s,7s)-adamantan-1-yl (E)-3-(3,4-dihydroxyphenyl) acrylate] | – |
| 3.57 ± 0.19 µM | 10.8 ± 0.67 µM | 212 to 217 °C | – | O=C(OCC12CC3CC(CC(C3)C1)C2)c1ccc(O)c(O)c1 [2m, (3r,5r,7r)-adamantan-1-yl)methyl 3,4-dihydroxybenzoate] | – |
| 2.7 ± 0.13 µM | 5.98 ± 0.53 µM | 161 to 164 °C | – | O=C(/C=C/c1ccc(O)c(O)c1)OCC12CC3CC(CC(C3)C1)C2 [2n, ((3r,5r,7r)-adamantan-1-yl)methyl(E)-3-(3,4-dihydroxyphenyl)acrylate] | – |
| – | 9.4 ± 0.81 µM | 40 to 42 °C | 0.78 µM | CC1(C)C2CCC1(C)[C@H](OC(=O)c1ccc(O)c(O)c1)C2 (stereo partly drawn) [2o, (2R)-1,7,7-trimethylbicyclo[2.2.1]heptan-2-yl 3,4-dihydroxybenzoate] | – |
| 5.4 ± 0.55 µM | 6.5 ± 0.43 µM | 209 to 211 °C | – | O=C(NC12CC3CC(CC(C3)C1)C2)c1ccc(O)c(O)c1 [3a', N-((3s,5s,7s)-adamantan-1-yl)-3,4-dihydroxybenzamide] | – |
| 188 ± 14 µM | 5.05 ± 4.08 µM | 130 to 132 °C | – | COc1cc(/C=C/C(=O)NC23CC4CC(CC(C4)C2)C3)ccc1O [3b', (E)-N-((3s,5s,7s)-adamantan-1-yl)-3-(4-hydroxy-3-methoxyphenyl)acrylamide] | – |
| 38.5 ± 1.97 µM | 17.1 ± 2 µM | – | – | Cc1nc(N2CCN(C)CC2)nc2c1Sc1ccccc1N2 [4-MMPB, 4-methyl-2-(4-methylpiperazinyl)pyrimido[4,5-b]benzothiazine, reference compound] | – |
